Counter-ions that a name gives are not always drawn.
The compounds below were run against Asp-2 (Homo sapiens, UniProt P56817) (assay: Asp-2 inhibitory assay). Details: FAM-[[…]]-TAMRA substrate, pH 4.5, 1 h room temperature; read-out: inhibition in the Asp-2 inhibitory assay.
Type: biochemical
Method: (I) Asp-2 Inhibitory Assay
For each compound being assayed, in a 384 well plate, is added:
This is prepared by diluting 2 ml of a 2 mM DMSO solution of the substrate into 400 ml of buffer (100 mM Sodium acetate pH=4.5, 1 l Milli-Q water, 0.06% Triton X-100 (0.5 ml/l), pH adjusted to 4.5 using glacial acetic acid).
c) 10 μl enzyme solution. This is prepared by diluting 16 ml of a 500 nM enzyme solution into 384 ml of buffer (prepared as above).
Blank wells (enzyme solution replaced by buffer) are included as controls on each plate.

Chain of Asp-2 (P56817 46-501): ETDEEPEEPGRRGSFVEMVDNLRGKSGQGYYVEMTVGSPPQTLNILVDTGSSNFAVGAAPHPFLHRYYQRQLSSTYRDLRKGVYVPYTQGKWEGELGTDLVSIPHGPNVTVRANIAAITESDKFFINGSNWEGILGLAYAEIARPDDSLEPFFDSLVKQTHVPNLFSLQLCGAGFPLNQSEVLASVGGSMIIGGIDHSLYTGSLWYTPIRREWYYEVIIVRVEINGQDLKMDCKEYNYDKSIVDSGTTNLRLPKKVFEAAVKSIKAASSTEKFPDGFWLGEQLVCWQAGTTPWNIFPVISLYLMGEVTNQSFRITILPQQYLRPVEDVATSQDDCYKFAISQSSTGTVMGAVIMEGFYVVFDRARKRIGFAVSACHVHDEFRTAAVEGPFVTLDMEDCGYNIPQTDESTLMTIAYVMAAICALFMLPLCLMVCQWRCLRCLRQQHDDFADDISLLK

IC50, < 1 µM:
CCCc1cn2c3c(cc(C(=O)N[C@@H](Cc4ccccc4)[C@H](O)CNCc4cnn(CC)c4)cc13)N(CC)S(=O)(=O)CC2 [Example E51, 1-Ethyl-N-[(1S,2R)-3-{[(1-ethyl-1H-pyrazol-4-yl)methyl]amino}-2-hydroxy-1-(phenylmethyl)propyl]-7-propyl-3,4-dihydro-1H-[1,2,5]thiadiazepino[3,4,5-hi]indole-9-carboxamide 2,2-dioxide formate salt]
CCc1cn2c3c(cc(C(=O)N[C@@H](Cc4ccccc4)[C@H](O)CNCc4cccc(OC(F)(F)F)c4)cc13)N(C)S(=O)(=O)CC2 [Example E67, 7-Ethyl-N-{(1S,2R)-2-hydroxy-1-(phenylmethyl)-3-[({3-[(trifluoromethyl)oxy]phenyl}methyl)amino]propyl}-1-methyl 3,4-dihydro-1H-[1,2,5]thiadiazepino[3,4,5-hi]indole-9-carboxamide 2,2-dioxide formate salt]
CCc1cn2c3c(cc(C(=O)N[C@@H](Cc4ccccc4)[C@H](O)CNCc4cccc(C)c4)cc13)N(C)S(=O)(=O)CC2 [Example E70, 7-Ethyl-N-[(1S,2R)-2-hydroxy-3-{[(3-methylphenyl)methyl]amino}-1-(phenylmethyl)propyl]-1-methyl-3,4-dihydro-1H-[1,2,5]thiadiazepino[3,4,5-hi]indole-9-carboxamide 2,2-dioxide formate salt]
CCc1cn2c3c(cc(C(=O)N[C@@H](Cc4ccccc4)[C@H](O)CN[C@H]4CCc5ccccc54)cc13)N(C)S(=O)(=O)CC2 [Example E72, N-[(1S,2R)-3-[(1S)-2,3-Dihydro-1H-inden-1-ylamino]-2-hydroxy-1-(phenylmethyl)propyl]-7-ethyl-1-methyl-3,4-dihydro-1H-[1,2,5]thiadiazepino[3,4,5-hi]indole-9-carboxamide 2,2-dioxide formate salt]
CCc1cn2c3c(cc(C(=O)N[C@@H](Cc4ccccc4)[C@H](O)CNCc4cnn(CC(F)(F)F)c4)cc13)N(C)S(=O)(=O)CC2 [Example E74, 7-Ethyl-N-[(1S,2R)-2-hydroxy-1-(phenylmethyl)-3-({[1-(2,2,2-trifluoroethyl)-1H-pyrazol-4-yl]methyl}amino)propyl]-1-methyl-3,4-dihydro-1H-[1,2,5]thiadiazepino[3,4,5-hi]indole-9-carboxamide 2,2-dioxide formate salt]
CCc1cn2c3c(cc(C(=O)N[C@@H](Cc4ccccc4)[C@H](O)CNCc4cccc(C(F)(F)F)c4)cc13)N(C)S(=O)(=O)C2C (stereo partly drawn) [Example E78, 6-Ethyl-N-[(1S,2R)-2-hydroxy-1-(phenylmethyl)-3-({[3-(trifluoromethyl)phenyl]methyl}amino)propyl]-1,3dimethyl-1H-[1,2,5]thiadiazino[3,4,5-hi]indole-8-carboxamide 2,2-dioxide formate salt]
CCc1cn2c3c(cc(C(=O)N[C@@H](Cc4ccccc4)[C@H](O)CNC(C)(C)c4cccc(C(F)(F)F)c4)cc13)N(C)S(=O)(=O)C2 [Example E79, 6-Ethyl-N-[(1S,2R)-2-hydroxy-3-({1-methyl-1-[3-(trifluoromethyl)phenyl]ethyl}amino)-1-(phenylmethyl)propyl]-1-methyl-1H-[1,2,5]thiadiazino[3,4,5-hi]indole-8-carboxamide 2,2-dioxide formate salt]
CCc1cn2c3c(cc(C(=O)N[C@@H](Cc4ccccc4)[C@H](O)CNCc4cccc(C(F)(F)F)c4)cc13)N(C)S(=O)(=O)C2 [Example E83, 6-Ethyl-N-[(1S,2R)-2-hydroxy-1-(phenylmethyl)-3-({[3-(trifluoromethyl)phenyl]methyl}amino)propyl]-1-methyl-1H-[1,2,5]thiadiazino[3,4,5-hi]indole-8-carboxamide 2,2-dioxide formate salt]
CCc1cn2c3c(cc(C(=O)N[C@@H](Cc4ccccc4)[C@H](O)CNCc4cncc(C(=O)NC)c4)cc13)N(C)S(=O)(=O)CC2 [Example E97, 7-Ethyl-N-[(1S,2R)-2 hydroxy-3-[({5-[(methylamino)carbonyl]-3-pyridinyl}methyl)amino]-1-(phenylmethyl)propyl]-1-methyl-3,4-dihydro-1H-[1,2,5]thiadiazepino[3,4,5-hi]indole-9-carboxamide 2,2-dioxide formate salt]
CCc1cc(CNC[C@@H](O)[C@H](Cc2ccccc2)NC(=O)c2cc3c4c(c2)c(CC)cn4CCS(=O)(=O)N3C)on1 [Example E104, 7-Ethyl-N-[(1S,2R)-3-{[(3-ethyl-5-isoxazolyl)methyl]amino}-2-hydroxy-1-(phenylmethyl)propyl]-1-methyl-3,4-dihydro-1H-[1,2,5]thiadiazepino[3,4,5-hi]indole-9-carboxamide 2,2-dioxide]
CCc1cn2c3c(cc(C(=O)N[C@@H](Cc4ccccc4)[C@H](O)CN[C@@H](C)C(=O)NC4CCCCC4)cc13)N(C)S(=O)(=O)CC2 [Example E105, N-[(1S,2R)-3-{[(1S)-2-(Cyclohexylamino)-1-methyl-2-oxoethyl]amino}-2-hydroxy-1-(phenylmethyl)propyl]-7-ethyl-1-methyl-3,4-dihydro-1H-[1,2,5]thiadiazepino[3,4,5-hi]indole-9-carboxamide 2,2-dioxide]
CCc1cn2c3c(cc(C(=O)N[C@@H](Cc4ccccc4)[C@H](O)CNC4CCC(F)(F)CC4)cc13)N(C)S(=O)(=O)CC2 [Example E106, N-[(1S,2R)-3-[(4,4-Difluorocyclohexyl)amino]-2-hydroxy-1-(phenylmethyl)propyl]-7-ethyl-1-methyl-3,4-dihydro-1H-[1,2,5]thiadiazepino[3,4,5-hi]indole-9-carboxamide 2,2-dioxide formate salt]

From patent publication US20060229302A1, “Tricyclic indole derivatives and their use in the treatment of alzheimer's disease” (priority 2003, published 2006)
